Source: paper PMC7180948, “New Insights into 4-Anilinoquinazolines as Inhibitors of Cardiac Troponin I–Interacting Kinase (TNNi3K)” (Molecules, 2020)

Tests used:
Experiment in all cases: biochemical
Set-up in all cases: KINOMEscan competition binding panel (Eurofins DiscoverX), single concentration, % inhibition
[1] = biological target: ACVR2A (Homo sapiens, UniProt P27037); settings: read-out: 7 at 1 µM % inhibition
Method in brief: (§1)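 Binding was profiled in the KINOMEscan panel of over 400 human kinases, with each compound tested at a single concentration of 1 µM to map selectivity.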

[2] = biological target: AKT3 (Homo sapiens, UniProt Q9Y243); settings: read-out: 7 at 1 µM % inhibition
Chain of AKT3 (Q9Y243 whole entry): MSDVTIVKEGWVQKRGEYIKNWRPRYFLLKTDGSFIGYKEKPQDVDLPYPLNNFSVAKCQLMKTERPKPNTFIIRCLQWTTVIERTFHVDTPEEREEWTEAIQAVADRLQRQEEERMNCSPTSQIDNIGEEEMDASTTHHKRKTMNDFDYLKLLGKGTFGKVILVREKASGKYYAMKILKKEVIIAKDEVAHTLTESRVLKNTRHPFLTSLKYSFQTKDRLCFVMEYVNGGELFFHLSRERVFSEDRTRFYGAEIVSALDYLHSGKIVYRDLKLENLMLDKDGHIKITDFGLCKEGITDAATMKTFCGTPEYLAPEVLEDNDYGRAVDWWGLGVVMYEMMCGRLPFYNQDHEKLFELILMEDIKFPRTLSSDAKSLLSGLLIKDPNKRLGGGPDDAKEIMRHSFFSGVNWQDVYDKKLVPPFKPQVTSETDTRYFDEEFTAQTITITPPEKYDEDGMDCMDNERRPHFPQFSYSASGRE
Method in brief: as §1

[3] = biological target: CAMK2G (Homo sapiens, UniProt Q13555); settings: read-out: 7 at 1 µM % inhibition
Chain of CAMK2G (Q13555 whole entry): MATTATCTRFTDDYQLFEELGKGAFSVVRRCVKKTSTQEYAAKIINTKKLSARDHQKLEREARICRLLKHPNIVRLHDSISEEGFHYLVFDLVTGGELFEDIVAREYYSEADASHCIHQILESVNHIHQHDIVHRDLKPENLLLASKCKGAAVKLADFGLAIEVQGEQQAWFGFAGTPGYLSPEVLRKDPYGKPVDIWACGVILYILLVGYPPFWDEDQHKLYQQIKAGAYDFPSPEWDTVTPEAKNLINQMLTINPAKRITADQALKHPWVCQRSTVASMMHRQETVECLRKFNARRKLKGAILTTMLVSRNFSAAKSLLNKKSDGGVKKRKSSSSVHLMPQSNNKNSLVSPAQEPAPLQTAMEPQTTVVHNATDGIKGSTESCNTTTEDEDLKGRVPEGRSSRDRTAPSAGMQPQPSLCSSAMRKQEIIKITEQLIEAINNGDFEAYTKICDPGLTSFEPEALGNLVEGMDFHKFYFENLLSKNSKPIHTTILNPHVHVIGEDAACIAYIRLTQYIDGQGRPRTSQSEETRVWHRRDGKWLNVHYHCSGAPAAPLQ
Method in brief: as §1

[4] = biological target: CDK9 (Homo sapiens, UniProt P50750); settings: read-out: 7 at 1 µM % inhibition
Chain of CDK9 (P50750 whole entry): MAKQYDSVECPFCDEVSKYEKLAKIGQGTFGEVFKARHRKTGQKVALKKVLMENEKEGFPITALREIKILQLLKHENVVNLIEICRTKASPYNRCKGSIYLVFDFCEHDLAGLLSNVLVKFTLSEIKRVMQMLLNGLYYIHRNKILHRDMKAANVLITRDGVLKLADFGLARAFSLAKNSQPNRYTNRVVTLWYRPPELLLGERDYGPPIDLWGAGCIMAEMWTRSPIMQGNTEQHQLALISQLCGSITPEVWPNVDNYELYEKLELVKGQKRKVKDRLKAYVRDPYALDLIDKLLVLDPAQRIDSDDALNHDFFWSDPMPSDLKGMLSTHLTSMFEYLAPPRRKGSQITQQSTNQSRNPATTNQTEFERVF
Method in brief: as §1

[5] = biological target: CLK1 (Homo sapiens, UniProt P49759); settings: read-out: 7 at 1 µM % inhibition
Chain of CLK1 (P49759 whole entry): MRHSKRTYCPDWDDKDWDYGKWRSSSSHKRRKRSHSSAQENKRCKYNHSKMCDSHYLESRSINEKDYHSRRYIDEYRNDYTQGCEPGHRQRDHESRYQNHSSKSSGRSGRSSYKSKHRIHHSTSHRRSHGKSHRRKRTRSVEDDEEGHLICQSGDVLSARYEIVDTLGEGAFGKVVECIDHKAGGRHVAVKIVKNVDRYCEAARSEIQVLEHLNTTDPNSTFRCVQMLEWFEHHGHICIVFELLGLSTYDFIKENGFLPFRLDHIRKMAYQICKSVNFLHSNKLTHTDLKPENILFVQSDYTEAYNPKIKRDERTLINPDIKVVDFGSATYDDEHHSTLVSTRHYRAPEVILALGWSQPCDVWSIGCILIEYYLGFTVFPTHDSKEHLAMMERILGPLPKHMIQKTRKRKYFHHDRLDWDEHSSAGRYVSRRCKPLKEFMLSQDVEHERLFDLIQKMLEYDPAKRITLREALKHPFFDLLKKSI
Method in brief: as §1

[6] = biological target: T1, DCAMKL3 (Homo sapiens, UniProt Q9C098); settings: read-out: 7 at 1 µM % inhibition
T1 construct: gene DCLK3
Method in brief: as §1

[7] = biological target: FER (Homo sapiens, UniProt P16591); settings: read-out: 7 at 1 µM % inhibition
Method in brief: as §1

[8] = biological target: FLT3(ITD,D835V) (Homo sapiens, UniProt P36888, D835V/ITD); settings: read-out: 7 at 1 µM % inhibition
Method in brief: as §1

[9] = biological target: T2, HPK1 (Homo sapiens, UniProt Q92918); settings: read-out: 7 at 1 µM % inhibition
T2 construct: gene MAP4K1
Method in brief: as §1

[10] = biological target: T3, IKK-alpha (Homo sapiens, UniProt O15111); settings: read-out: 7 at 1 µM % inhibition
T3 construct: gene CHUK
T3 sequence (O15111 whole entry): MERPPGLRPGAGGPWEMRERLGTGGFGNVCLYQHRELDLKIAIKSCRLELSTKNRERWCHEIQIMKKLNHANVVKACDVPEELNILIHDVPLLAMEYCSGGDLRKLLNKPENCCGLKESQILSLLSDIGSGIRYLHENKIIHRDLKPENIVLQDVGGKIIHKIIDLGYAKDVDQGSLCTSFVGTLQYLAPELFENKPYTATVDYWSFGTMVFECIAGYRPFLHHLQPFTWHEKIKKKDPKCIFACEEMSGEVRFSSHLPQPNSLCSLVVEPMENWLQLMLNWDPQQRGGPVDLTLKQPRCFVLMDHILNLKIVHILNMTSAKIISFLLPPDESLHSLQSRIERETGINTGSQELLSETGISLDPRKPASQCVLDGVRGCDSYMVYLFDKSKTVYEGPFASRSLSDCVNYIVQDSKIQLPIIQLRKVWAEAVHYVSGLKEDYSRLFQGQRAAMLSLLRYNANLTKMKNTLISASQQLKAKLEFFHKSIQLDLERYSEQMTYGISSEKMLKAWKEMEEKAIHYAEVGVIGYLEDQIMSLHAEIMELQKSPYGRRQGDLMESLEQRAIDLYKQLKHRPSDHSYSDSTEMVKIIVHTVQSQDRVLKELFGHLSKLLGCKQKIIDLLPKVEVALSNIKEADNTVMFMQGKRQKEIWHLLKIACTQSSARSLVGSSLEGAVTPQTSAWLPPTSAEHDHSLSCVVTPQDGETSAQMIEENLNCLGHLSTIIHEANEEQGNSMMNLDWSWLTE
Method in brief: as §1

[11] = biological target: MELK (Homo sapiens, UniProt Q14680); settings: read-out: 7 at 1 µM % inhibition
Method in brief: as §1

[12] = biological target: T4, MINK (Homo sapiens, UniProt Q8N4C8); settings: read-out: 7 at 1 µM % inhibition
T4 construct: gene MINK1
Method in brief: as §1

[13] = biological target: T5, MST3 (Homo sapiens, UniProt Q9Y6E0); settings: read-out: 7 at 1 µM % inhibition
T5 construct: gene STK24
Method in brief: as §1

[14] = biological target: MYLK2 (Homo sapiens, UniProt Q9H1R3); settings: read-out: 7 at 1 µM % inhibition
Method in brief: as §1

[15] = biological target: MYLK4 (Homo sapiens, UniProt Q86YV6); settings: read-out: 7 at 1 µM % inhibition
Chain of MYLK4 (Q86YV6 whole entry): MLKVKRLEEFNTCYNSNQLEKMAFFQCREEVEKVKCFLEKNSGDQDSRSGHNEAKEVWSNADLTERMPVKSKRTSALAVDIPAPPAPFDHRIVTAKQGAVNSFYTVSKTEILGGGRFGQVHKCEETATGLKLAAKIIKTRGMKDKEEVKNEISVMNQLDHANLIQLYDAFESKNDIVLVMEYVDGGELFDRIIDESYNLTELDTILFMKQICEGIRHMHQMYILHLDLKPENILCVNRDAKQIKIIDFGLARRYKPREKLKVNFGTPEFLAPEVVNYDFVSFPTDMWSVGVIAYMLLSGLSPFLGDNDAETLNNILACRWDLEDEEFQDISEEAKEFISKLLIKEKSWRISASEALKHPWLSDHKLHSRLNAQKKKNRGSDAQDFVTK
Method in brief: as §1

[16] = biological target: T6, OSR1 (Homo sapiens, UniProt O95747); settings: read-out: 7 at 1 µM % inhibition
T6 construct: gene OXSR1
T6 sequence (O95747 whole entry): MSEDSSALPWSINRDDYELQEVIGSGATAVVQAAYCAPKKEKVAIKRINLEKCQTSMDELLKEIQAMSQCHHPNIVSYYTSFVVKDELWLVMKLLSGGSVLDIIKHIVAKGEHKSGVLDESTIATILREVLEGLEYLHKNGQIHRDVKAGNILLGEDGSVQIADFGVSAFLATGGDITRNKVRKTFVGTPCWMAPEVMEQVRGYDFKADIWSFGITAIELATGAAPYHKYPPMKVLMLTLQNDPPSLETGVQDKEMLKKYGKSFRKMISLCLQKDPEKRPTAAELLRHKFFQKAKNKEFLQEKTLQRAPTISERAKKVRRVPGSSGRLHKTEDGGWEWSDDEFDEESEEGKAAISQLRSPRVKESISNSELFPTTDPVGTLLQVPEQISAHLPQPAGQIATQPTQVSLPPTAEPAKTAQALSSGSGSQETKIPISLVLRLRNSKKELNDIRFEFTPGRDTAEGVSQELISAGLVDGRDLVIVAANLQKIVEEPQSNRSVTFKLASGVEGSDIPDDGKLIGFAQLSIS
Method in brief: as §1

[17] = biological target: T7, PFCDPK1(P.falciparum) (Plasmodium falciparum, UniProt P62344); settings: read-out: 7 at 1 µM % inhibition (pathogen kinases)
T7 construct: gene CDPK1
Method in brief: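 KINOMEscan binding panel of >400 kinases, run by Eurofins DiscoverX, with compounds tested at a single concentration of 1 µM.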

[18] = biological target: T8, PFTK1 (Homo sapiens, UniProt O94921); settings: read-out: 7 at 1 µM % inhibition
T8 construct: gene CDK14
Method in brief: as §1

[19] = biological target: PIK3CA(E542K) (Homo sapiens, UniProt P42336, E542K); settings: read-out: 7 at 1 µM % inhibition
Method in brief: as §1

[20] = biological target: PIK3CA(Q546K) (Homo sapiens, UniProt P42336, Q546K); settings: read-out: 7 at 1 µM % inhibition
Method in brief: as §1

[21] = biological target: PRKCE (Homo sapiens, UniProt Q02156); settings: read-out: 7 at 1 µM % inhibition
Method in brief: as §1

[22] = biological target: T9, RSK4(Kin.Dom.1-N-terminal) (Homo sapiens, UniProt Q9UK32); settings: read-out: 7 at 1 µM % inhibition
T9 construct: gene RPS6KA6; Kin.Dom.1-N-terminal
T9 sequence (Q9UK32 whole entry): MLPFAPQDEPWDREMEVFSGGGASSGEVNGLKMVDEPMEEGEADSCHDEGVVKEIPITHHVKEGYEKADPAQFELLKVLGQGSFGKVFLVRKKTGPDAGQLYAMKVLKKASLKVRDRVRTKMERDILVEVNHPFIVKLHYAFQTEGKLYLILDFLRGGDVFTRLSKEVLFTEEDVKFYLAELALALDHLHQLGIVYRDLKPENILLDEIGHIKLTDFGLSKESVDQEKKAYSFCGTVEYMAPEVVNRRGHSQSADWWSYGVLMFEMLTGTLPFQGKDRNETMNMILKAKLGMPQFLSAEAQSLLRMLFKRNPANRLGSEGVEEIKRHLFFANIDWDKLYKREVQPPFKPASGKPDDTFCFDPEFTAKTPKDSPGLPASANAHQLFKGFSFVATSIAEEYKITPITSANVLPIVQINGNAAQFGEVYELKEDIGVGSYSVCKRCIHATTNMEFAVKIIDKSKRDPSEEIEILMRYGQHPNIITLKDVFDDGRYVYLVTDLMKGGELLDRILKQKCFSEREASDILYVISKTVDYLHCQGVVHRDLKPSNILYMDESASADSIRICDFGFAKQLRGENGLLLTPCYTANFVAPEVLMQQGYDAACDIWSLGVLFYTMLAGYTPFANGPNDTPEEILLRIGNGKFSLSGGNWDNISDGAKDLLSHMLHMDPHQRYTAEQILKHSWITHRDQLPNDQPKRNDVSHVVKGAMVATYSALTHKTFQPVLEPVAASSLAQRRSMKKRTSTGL
Method in brief: as §1

[23] = biological target: SLK (Homo sapiens, UniProt Q9H2G2); settings: read-out: 7 at 1 µM % inhibition
Method in brief: as §1

[24] = biological target: TSSK3 (Homo sapiens, UniProt Q96PN8); settings: read-out: 7 at 1 µM % inhibition
Method in brief: as §1

Chain of ACVR2A (P27037 whole entry): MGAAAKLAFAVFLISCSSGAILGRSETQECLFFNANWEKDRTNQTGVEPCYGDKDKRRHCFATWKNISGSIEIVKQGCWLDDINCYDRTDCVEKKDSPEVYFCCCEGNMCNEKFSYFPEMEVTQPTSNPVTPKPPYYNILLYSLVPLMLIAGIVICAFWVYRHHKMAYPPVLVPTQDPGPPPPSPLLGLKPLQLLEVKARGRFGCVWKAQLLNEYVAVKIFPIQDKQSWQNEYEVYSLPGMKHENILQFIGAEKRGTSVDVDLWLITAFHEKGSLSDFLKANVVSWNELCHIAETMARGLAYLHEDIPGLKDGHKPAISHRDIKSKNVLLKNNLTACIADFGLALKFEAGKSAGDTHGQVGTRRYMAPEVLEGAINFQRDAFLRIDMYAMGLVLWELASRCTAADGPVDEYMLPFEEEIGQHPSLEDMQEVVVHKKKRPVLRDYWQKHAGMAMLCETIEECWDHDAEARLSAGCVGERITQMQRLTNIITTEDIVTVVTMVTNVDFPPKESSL

With `CNS(=O)(=O)c1ccc(N(C)C)c(Nc2ncnc3cc(OC)c(OC)cc23)c1` [compound 7, 3-((6,7-dimethoxyquinazolin-4-yl)amino)-4-(dimethylamino)-N-methylbenzenesulfonamide] the inhibition at 1 µM [1] was 0%, the inhibition at 1 µM [2] was 0% and the inhibition at 1 µM [3] was 0%. For the same compound, the inhibition at 1 µM [4] was 0%, the inhibition at 1 µM [5] was 8% and the inhibition at 1 µM [6] was 15%. The inhibition at 1 µM [7] was 0%, the inhibition at 1 µM [8] was 34% and the inhibition at 1 µM [9] was 0%. It also gave an inhibition at 1 µM [10] of 68%, an inhibition at 1 µM [11] of 17% and an inhibition at 1 µM [12] of 18%. The inhibition at 1 µM [13] was 0%, the inhibition at 1 µM [14] was 0% and the inhibition at 1 µM [15] was 0%. For the same compound, the inhibition at 1 µM [16] was 22%, the inhibition at 1 µM [17] was 96.3% and the inhibition at 1 µM [18] was 0%. For the same compound, the inhibition at 1 µM [19] was 17%, the inhibition at 1 µM [20] was 36% and the inhibition at 1 µM [21] was 0%. The inhibition at 1 µM [22] was 34%, the inhibition at 1 µM [23] was 0% and the inhibition at 1 µM [24] was 0%.
